Patent US8546377B2 (AbbVie Inc., priority 2009, dated 2013)

What was measured:
[1] = target: T1, human serotonin 5-HT2c receptor (Homo sapiens, UniProt P28335); assay: Human 5-HT2C receptor radioligand binding assay (agonist site, [125I](±)DOI); conditions: membranes of transfected CHO cells, 0.2 nM [125I](±)DOI, 15 minutes at 37° C.
T1 construct: expressed in transfected cells; host or cells: CHO cells (membrane homogenate)
T1 sequence (P28335 33-458): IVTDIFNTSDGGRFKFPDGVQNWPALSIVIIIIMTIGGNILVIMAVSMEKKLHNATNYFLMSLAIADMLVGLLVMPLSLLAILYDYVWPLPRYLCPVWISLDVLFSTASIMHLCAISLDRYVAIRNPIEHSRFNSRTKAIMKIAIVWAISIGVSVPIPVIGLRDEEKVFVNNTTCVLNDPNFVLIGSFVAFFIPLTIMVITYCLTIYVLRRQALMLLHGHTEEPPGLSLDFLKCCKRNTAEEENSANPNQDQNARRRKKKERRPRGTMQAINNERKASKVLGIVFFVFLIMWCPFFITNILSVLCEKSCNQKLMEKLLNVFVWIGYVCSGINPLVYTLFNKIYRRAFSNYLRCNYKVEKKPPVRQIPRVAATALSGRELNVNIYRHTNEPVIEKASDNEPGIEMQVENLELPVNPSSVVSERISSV
Protocol: To determine the effectiveness of compounds having a formula (I), these compounds can be evaluated in a radioligand binding assay for the agonist site of the human serotonin 5-HT2c receptor or in vitro models of cellular function.
(i) Human 5-HT2C Receptor Radioligand Binding Assay
Affinity of compounds for the agonist site of the 5-HT2c receptor in transfected CHO cells was determined in a radioligand binding assay essentially as described by Bryant, H. U., et al., Life Sciences (1996) 59(15), 1259-1268.

5HT2C receptors [2] = target: T2, 5HT2C receptors (Homo sapiens, UniProt P28335); assay: Human 5-HT2C functional assay in 1321N1 cells (intracellular calcium, FLIPR); format: cell-based; set-up: expressed in transfected cells; host or cells: 1321N1 cells; conditions: for EC50: 1321N1 cells stably transfected, maximum calcium response, read-out: EC50 (μM), 5-HT2c Agonist Activity; for Emax: 1321N1 cells, percentage relative to the effect of serotonin, read-out: Emax (%), 5-HT2c Agonist Activity
T2 sequence (P28335 33-458): T1 sequence (P28335 33-458)
Protocol: (ii) Human 5-HT2C Functional Assay in 1321N1 Cells
Functional activity was determined by testing the effect of the compounds on intracellular calcium levels in 1321N1 cells stably transfected with the human 5-HT2C receptor. Cells were seeded into 96-well plates at 50,000 cells/well and grown overnight in tissue culture medium (DMEM with Glutamax I (Invitrogen), containing 10% dFCS, 50 μg/mL Gentamicin, 400 μg/mL Geneticin) at 37° C. and 7% CO2. Growth medium was replaced by medium without dFCS for overnight incubation. Cells were loaded with a fluorescent calcium-sensitive dye in the presence of 1% probenicid according to the manufacturer's protocol (Fluo4 AM, Molecular Devices). Serial compound dilutions (final concentrations 10^−10 to 10^−5 M) were added to the cells either alone or in the presence of serotonin (10^−9 M) and the maximum calcium response was determined using a FLIPR instrument (Molecular Devices). Concentration-response curves were fitted using a four-parameter logistic equation (GraphPad Prism). The concentration at which the compound exerts half its maximal effect is named the ‘effective concentration 50’ or ‘EC50’ and is listed in Table 2.
Emax is the maximum functional response or efficacy expressed as a percentage relative to the effect of serotonin.

5HT2B receptors = target: T3, 5HT2B receptors (Homo sapiens, UniProt P41595); assay: Human 5-HT2B functional assay in CHO-K1 cells (calcium flux, FLIPR); format: cell-based
T3 construct: expressed in transfected cells; host or cells: CHO-K1 cells
Outline: (§1)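 EC50 came from a 4-parameter logistic fit, with Emax expressed relative to serotonin, of intracellular Ca2+ rises read on FLIPR at 480/530 nm, 25° C, over 3 min. Compounds ran from 10 μM in six 1:10 steps (0.2% DMSO) on serum-starved CHO-K1 transfectants pre-loaded 60 min with Ca4 dye and probenecid.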

5HT2C receptors [3] = target: T2, 5HT2C receptors; assay: Human 5-HT2C functional assay in CHO-K1 cells (calcium flux, FLIPR); format: cell-based; set-up: expressed in transfected cells; host or cells: CHO-K1 cells; conditions: for Emax: CHO-K1, read-out: Emax (%), 5-HT2c Agonist Activity, CHO-K1 cells, percentage relative to the effect of serotonin
Outline: as §1

T3 sequence (P41595 whole entry): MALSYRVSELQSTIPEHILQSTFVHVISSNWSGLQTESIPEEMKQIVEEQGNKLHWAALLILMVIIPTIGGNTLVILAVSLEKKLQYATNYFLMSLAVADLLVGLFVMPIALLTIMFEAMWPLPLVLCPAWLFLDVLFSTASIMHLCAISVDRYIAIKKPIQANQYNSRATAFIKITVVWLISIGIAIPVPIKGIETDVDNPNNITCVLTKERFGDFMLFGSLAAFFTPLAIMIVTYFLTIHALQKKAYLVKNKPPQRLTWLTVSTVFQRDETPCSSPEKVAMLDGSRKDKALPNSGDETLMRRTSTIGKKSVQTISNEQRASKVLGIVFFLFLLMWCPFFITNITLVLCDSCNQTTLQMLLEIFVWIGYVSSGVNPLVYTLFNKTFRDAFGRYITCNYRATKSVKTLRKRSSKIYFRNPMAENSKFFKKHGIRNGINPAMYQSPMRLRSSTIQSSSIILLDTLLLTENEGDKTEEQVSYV

Structure (SMILES)	Ki [1]	EC50 (5HT2C receptors [2])	Emax (5HT2C receptors [2])	EC50 (5HT2B receptors)	EC50 (5HT2C receptors [3])	Emax (5HT2C receptors [3])	Emax (5HT2B receptors; CHO-K1, read-out: Emax (%), 5-HT2B Agonist Activity)
O=C1CC2CNCCN2c2cc(Br)ccc2N1 (stereo not drawn) [Example 4, 10-bromo-1,2,3,4,4a,5-hexahydropyrazino[1,2-a][1,5]-benzodiazepin-6(7H)-one]	0.0069 µM	0.0028 µM	92%				
Clc1cccc(CN2CCC3CNCCN3c3ccccc32)c1 (stereo not drawn) [Example 22, 7-(3-chlorobenzyl)-1,2,3,4,4a,5,6,7-octahydropyrazino[1,2-a][1,5]benzodiazepine]	0.085 µM	0.0697 µM	80.5%				
O=C1CC2CNCCN2c2cc(/C=C/c3ccc(Cl)cc3)ccc2N1 (stereo not drawn) [Example 27, 10-[(E)-2-(4-chlorophenyl)vinyl]-1,2,3,4,4a,5-hexahydropyrazino[1,2-a][1,5]benzodiazepin-6(7H)-one]	0.013 µM	0.183 µM	96.5%				
O=C1CC2CNCCN2c2ccc(F)cc2N1 (stereo not drawn) [Example 34, 9-fluoro-1,2,3,4,4a,5-hexahydropyrazino[1,2-a][1,5]-benzodiazepin-6(7H)-one]	0.19 µM	0.0893 µM	100%				
N#Cc1ccc2c(c1)N1CCNCC1CC(=O)N2 (stereo not drawn) [Example 11, 6-oxo-1,2,3,4,4a,5,6,7-octahydropyrazino[1,2-a][1,5]benzodiazepine-10-carbonitrile]	0.19 µM	0.0938 µM	104%				
CN1C(=O)CC2CNCCN2c2ccccc21 (stereo not drawn) [Example 20, 7-methyl-1,2,3,4,4a,5-hexahydropyrazino[1,2-a][1,5]benzodiazepin-6(7H)-one]	0.22 µM	0.0759 µM	103%				
O=C1CC2CN(Cc3ccccc3)CCN2c2cc(Cl)ccc2N1 (stereo not drawn) [Example 24, 3-benzyl-10-chloro-1,2,3,4,4a,5-hexahydropyrazino[1,2-a][1,5]benzodiazepin-6(7H)-one]	0.36 µM	0.942 µM					
O=C1CC2CNCCN2c2cc(/C=C/c3cccc(F)c3)ccc2N1 (stereo not drawn) [Example 9, 10-[(E)-2-(3-fluorophenyl)vinyl]-1,2,3,4,4a,5-hexahydropyrazino[1,2-a][1,5]benzodiazepin-6(7H)-one]	0.0032 µM						
Clc1ccccc1CN1CCC2CNCCN2c2ccccc21 (stereo not drawn) [Example 21, 7-(2-chlorobenzyl)-1,2,3,4,4a,5,6,7-octahydropyrazino[1,2-a][1,5]benzodiazepine]	0.097 µM	0.044 µM	93%				
O=C1CC2CNCCN2c2cc(Cl)ccc2N1 (stereo not drawn) [Example 3, 10-chloro-1,2,3,4,4a,5-hexahydropyrazino[1,2-a][1,5]benzodiazepin-6(7H)-one]	0.012 µM	0.0017 µM	93%				
O=C1CC2CNCCN2c2cc(CCc3ccccc3)ccc2N1 (stereo not drawn) [Example 29, 10-(2-phenylethyl)-1,2,3,4,4a,5-hexahydropyrazino[1,2-a][1,5]benzodiazepin-6(7H)-one]	0.011 µM	0.0043 µM	104%				
O=C1CC2CNCCN2c2ccccc2N1 (stereo not drawn) [Example 1, 1,2,3,4,4a,5-hexahydropyrazino[1,2-a][1,5]benzodiazepin-6(7H)-one]	0.086 µM	0.0135 µM	100%				
O=C1CC2CNCCN2c2cc(/C=C/c3cccc(Cl)c3)ccc2N1 (stereo not drawn) [Example 25, 10-[(E)-2-(3-chlorophenyl)vinyl]-1,2,3,4,4a,5-hexahydropyrazino[1,2-a][1,5]benzodiazepin-6(7H)-one]	0.0014 µM	0.0145 µM	101%				
Cc1ccc2c(c1)N1CCNCC1CC(=O)N2 (stereo not drawn) [Example 10, 10-methyl-1,2,3,4,4a,5-hexahydropyrazino[1,2-a][1,5]benzodiazepin-6(7H)-one]	0.0083 µM	0.003 µM	99%				
c1ccc2c(c1)NCCC1CNCCN21 (stereo not drawn) [Example 17, 1,2,3,4,4a,5,6,7-octahydropyrazino[1,2-a][1,5]benzodiazepine]	0.14 µM	0.073 µM	111%				
O=C1CC2CNCCN2c2cc(/C=C/c3ccc(F)cc3F)ccc2N1 (stereo not drawn) [Example 28, 10-[(E)-2-(2,4-difluorophenyl)vinyl]-1,2,3,4,4a,5-hexahydropyrazino[1,2-a][1,5]benzodiazepin-6(7H)-one]	0.036 µM	0.131 µM	92%				
O=C1CC2CNCCN2c2cc(/C=C/c3ccccc3)ccc2N1 (stereo not drawn) [Example 6, 10-[(E)-2-phenylvinyl]-1,2,3,4,4a,5-hexahydropyrazino[1,2-a][1,5]benzodiazepin-6(7H)-one]	0.0035 µM	0.0298 µM	89.5%				
CCN1CCN2c3ccccc3NC(=O)CC2C1 (stereo not drawn) [Example 23, 3-ethyl-1,2,3,4,4a,5-hexahydropyrazino[1,2-a][1,5]benzodiazepin-6(7H)-one]	0.19 µM	0.165 µM	87%				
Clc1ccc2c(c1)N1CCNCC1CCN2 (stereo not drawn) [Example 18, 10-chloro-1,2,3,4,4a,5,6,7-octahydropyrazino[1,2-a][1,5]benzodiazepine]	0.018 µM	0.0037 µM	108%				
O=C1CC2CNCCN2c2ccc(Br)cc2N1 (stereo not drawn) [Example 13, 9-bromo-1,2,3,4,4a,5-hexahydropyrazino[1,2-a][1,5]benzodiazepin-6(7H)-one]	0.23 µM	0.0683 µM	79%				
COc1ccc2c(c1)N1CCNCC1CC(=O)N2 (stereo not drawn) [Example 12, 10-methoxy-1,2,3,4,4a,5-hexahydropyrazino[1,2-a][1,5]benzodiazepin-6(7H)-one]	0.038 µM	0.0381 µM	83.5%				
O=C1CC2CNCCN2c2c(Br)cccc2N1 (stereo not drawn) [Example 30, 11-bromo-1,2,3,4,4a,5-hexahydropyrazino[1,2-a][1,5]benzodiazepin-6(7H)-one]	0.016 µM	0.0017 µM	113%				
O=C1CC2CNCCN2c2cc(-c3cccc(Cl)c3)ccc2N1 (stereo not drawn) [Example 7, 10-(3-chlorophenyl)-1,2,3,4,4a,5-hexahydropyrazino[1,2-a][1,5]benzodiazepin-6(7H)-one]	0.041 µM	0.0279 µM	86%				
O=C1CC2CNCCN2c2cc(C(F)(F)F)ccc2N1 (stereo not drawn) [Example 31, 10-(trifluoromethyl)-1,2,3,4,4a,5-hexahydropyrazino[1,2-a][1,5]benzodiazepin-6(7H)-one]	0.087 µM	0.0204 µM	118%				
O=C1CC2CNCCN2c2cc(-c3ccccc3Cl)ccc2N1 (stereo not drawn) [Example 8, 10-(2-chlorophenyl)-1,2,3,4,4a,5-hexahydropyrazino[1,2-a][1,5]benzodiazepin-6(7H)-one]	0.14 µM						
O=C1CC2CNCCN2c2ccc(-c3ccc(Cl)cc3)cc2N1 (stereo not drawn) [Example 14, 9-(4-chlorophenyl)-1,2,3,4,4a,5-hexahydropyrazino[1,2-a][1,5]-benzodiazepin-6(7H)-one]	0.17 µM						
O=C1C[C@H]2CNCCN2c2c(F)cccc2N1 [Example 86, (4aS)-11-fluoro-1,2,3,4,4a,5-hexahydropyrazino[1,2-a][1,5]benzodiazepin-6(7H)-one]				> 10000 nM	8 nM	> 120%	
Clc1cc2c(cc1Cl)N1CCNC[C@@H]1CCO2 [Example 214, (4aS)-9,10-dichloro-2,3,4,4a,5,6-hexahydro-1H-pyrazino[2,1-d][1,5]benzoxazepine]				30 nM	2 nM	> 120%	60%
